Assay results reported in patent US20220143041A1, “COMBINED THERAPY FOR NMDAR ANTAGONIST-RESPONSIVE NEUROPSYCHIATRIC DISORDERS” (Glytech LLC, priority 2017, published 2022).
Entries after “also recorded” stand apart in the source; their conditions may differ.

Tests used:
[1] = tested on: Male BalbC/J mice; experiment: Forced swim test (FST), immobility time; format: in vivo; settings: for FST additional beneficial effects in combination with DCS / FST effect of combined antidepressant and DCS vs either agent alone / DCS alone: agent (dose) + DCS 300 mg/kg IP, FIG. 2; for Immobility time in the rodent forced swim test, Mean: 6-min test, IP 30 min prior, DCS 300 mg/kg, mirtazapine or isomer 5 mg/kg, alone or combined; for Effect on immobility in the forced swim test vs control: DCS alone
[2] = tested on: rodent; settings: Freynhagen et al.; cited from earlier work
[3] = tested on: mice; experiment: Marble burying test; format: in vivo; settings: for Marble burying effect relative to racemic mirtazapine: 1-10 mg/kg IP
Description: Distance traveled during the test was captured by cameras and quantified using Video Tracker Software (ViewPoint Life Sciences Software, France). At the end of the test mice were removed from the cages and the number of unburied marbles was counted. A marble was considered buried if it was covered at least two thirds with bedding. An effect was considered significant if p<0.05.
from the cages and the number of unburied marbles was counted. A marble was considered buried if it was covered at least two thirds with bedding.
The following compounds were used. […] This compound was dissolved in 20% cyclodextrin and administered IP 30 min prior to test at a dose volume of 10 ml/kg. • Combination DSC (300 mg/kg)+Mirtazapine ([…]) was administered IP as a cocktail in a single injection 30 minutes prior to test at a dose volume of 10 ml/kg.
Mirtazapine is a racemic mix of separate R(−) and S(+) isomers. A follow-up study evaluated the relative effects of the two isomers independently. Methods are the same as for Example 3.

[4] = tested on: symptoms of major depression; settings: 250 mg/day; cited from earlier work
[5] = target: T1, NMDAR (Homo sapiens, UniProt Q05586); settings: in vivo; cited from earlier work
T1 construct: from tissue; host or cells: endogenous receptors of the treated subject (brain), in vivo

[6] = Pharmacokinetics of D-cycloserine in humans (literature)
[7] = cited from earlier work
[8] = tested on: Male C57BL/6J mice; experiment: Open field test, locomotor activity; settings: vs vehicle
[9] = Pharmacokinetics of D-cycloserine in rodents (plasma level, UPLC/MS/MS); format: in vivo; settings: mice
Method: For this study, male C57BL/6J mice (8 weeks old) from Jackson Laboratories (Bar Harbor, Me.) were used.
For each treatment group a total of 12 mice were dosed: 4 mice were collected at 30, 60 and 120 min. Mean plasma level was computed over the 30-60 min time period.

[10] = tested on: mice; settings: mice (Carlsson et al.); cited from earlier work
[11] = FIG. 4, IP, paroxetine 5, mirtazapine and S-mirtazapine 1, 2.5, 5, 10, R-mirtazapine 10 mg/kg
[12] = FIG. 3, IP 30 min prior, paroxetine 5, mirtazapine 5.5, D-cycloserine 30 and 300 mg/kg, combination 300 + 5.5 mg/kg
[13] = 500 mg, corresponding to AUC over 24 hr (Zhu et al.)
[14] = humans, 250 mg PO every 12 hrs (Park et al.)
[15] = humans, 500 mg, fasting (Zhu et al.)
[16] = patients, mean dose 8.8 mg/kg, mostly 500 mg/day (Hung et al.)

## CN[C@H]1CC[C@@H](c2ccc(Cl)c(Cl)c2)c2ccccc21 [sertraline]
[1]
  FST additional beneficial effects in combination with DCS: addition beneficial effects
  FST effect of combined antidepressant and DCS vs either agent alone / DCS alone: significantly larger than with either agent alone; also recorded: effects greater than DCS alone

## CN1CCN2c3ncccc3Cc3ccccc3[C@@H]2C1 [R-mirtazapine, R(−)mirtazapine]
[2]
  Effect in a rodent nociception assay: only anti-nociceptive effects
[3]; FIG. 4
  Marble burying effect relative to racemic mirtazapine: less robust
[3]; [11]
  Number of marbles buried compared to vehicle: significantly reduced
[3]; FIG. 4, R-mirtazapine 1, 2.5 and 5 mg/kg IP
  Number of marbles buried compared to vehicle: did not affect
[3]; FIG. 4 legend
  Relative effects of R- and S-isomers of mirtazapine on marble burying (FIG. 4 legend): greater effects of R- vs S-isomer
[1]; 5 mg/kg, in absence and presence of DCS, not statistically different
  FST reduction in immobility, R- vs racemic mirtazapine: numerically greater
[1]
  Immobility time in the rodent forced swim test, Mean: 68.40 s

## Fc1ccc([C@@H]2CCNC[C@H]2COc2ccc3c(c2)OCO3)cc1 [Paroxetine]
[3]; [12]
  Number of marbles buried compared to vehicle: significantly reduced
[3]; [11]
  Number of marbles buried compared to vehicle: significantly reduced

## Cc1ccc(Sc2ccccc2N2CCNCC2)c(C)c1 [vortioxetine]
[1]
  FST additional beneficial effects in combination with DCS: addition beneficial effects

## CNCCC(Oc1ccc(C(F)(F)F)cc1)c1ccccc1 (centres unmarked) [fluoxetine]
[1]
  FST additional beneficial effects in combination with DCS: addition beneficial effects

## CN1CCN2c3ncccc3Cc3ccccc3C2C1 (racemic) [mirtazapine]
[2]
  Effect in a rodent nociception assay: biphasic effects
[3]; [12]
  Number of marbles buried compared to vehicle: significantly reduced
[3]; [11]
  Number of marbles buried compared to vehicle: significantly reduced
[1]
  Immobility time in the rodent forced swim test, Mean: 92.30 s
  FST additional beneficial effects in combination with DCS: addition beneficial effects

## COc1ccc(C(CN(C)C)C2(O)CCCCC2)cc1 (centres unmarked) [venlafaxine]
[1]
  FST additional beneficial effects in combination with DCS: addition beneficial effects

## CNCC[C@H](Oc1cccc2ccccc12)c1cccs1 [duloxetine]
[1]
  FST additional beneficial effects in combination with DCS: addition beneficial effects
  FST effect of combined antidepressant and DCS vs either agent alone / DCS alone: significantly larger than with either agent alone; also recorded: effects greater than DCS alone

## CN1CCN2c3ncccc3Cc3ccccc3[C@H]2C1 [S-mirtazapine, S(+)mirtazapine]
[2]
  Effect in a rodent nociception assay: pro-nociceptive effects
[3]; FIG. 4
  Marble burying effect relative to racemic mirtazapine: significantly more robust
[3]; [11]
  Number of marbles buried compared to vehicle: significantly reduced
[3]; IP 30 min prior
  Number of marbles buried, combination with DSC 300 mg/kg vs agent 2.5 mg/kg alone: floor level effects
[1]
  Immobility time in the rodent forced swim test, Mean: 117.60 s

## CC(NC(C)(C)C)C(=O)c1cccc(Cl)c1 (centres unmarked) [bupropion]
[1]
  FST additional beneficial effects in combination with DCS: addition beneficial effects
  FST effect of combined antidepressant and DCS vs either agent alone / DCS alone: significantly larger than with either agent alone; also recorded: effects greater than DCS alone

## N[C@@H]1CON=C1O [DCS, 3-Isoxazolidinone, 4-amino-, (4R)-(9CI)]
[4]
  Effect on symptoms of major depression: without significant effect
[5]
  Plasma concentrations associated with antagonist effects: > 25 µg/mL
  Plasma concentrations associated with primarily agonist effects: < 10 µg/mL
  Plasma levels with increased liability for toxicity: > 35 µg/mL
[3]; [12]
  Number of marbles buried compared to vehicle: did not affect
[6]; 250 mg PO every 12 hrs, corresponding to AUC over 12 hrs (Park et al.)
  Mean plasma level: 20.2 microgram/mL
[6]; [13]
  Median sustained plasma level: 8.9 microgram/mL
  Sustained plasma level, range: 6.8-14.7 microgram/mL
[7]; [14]
  Mean AUC over 12 hrs: 242.3 mg·h/L
  Mean Cmax: 24.9 microgram/mL
[7]; [15]
  AUC over 24 hr, range: 163-352 microgram-hr/mL
  Cmax, range: 12.1-30.6 microgram/mL
  Median AUC over 24 hr: 214 microgram-hr/mL
  Median Cmax: 14.8 microgram/mL
[7]; humans, summary of PK studies
  Sustained plasma level following 500 mg administration: below 25 microgram/mL
[7]; [16]
  DCS concentration at 2 hr after dosing: 19.7 microgram/mL
  DCS concentration at 6 hr after dosing: 18.1 microgram/mL
[8]; DCS 30 mg/kg IP
  Mean distance travelled over 30 min (locomotor activity): 4432.1
[8]; DCS 30 mg/kg IP, listed as D-cycloserine
  Mean distance travelled over 30 min (locomotor activity): not significantly affected
[8]; DCS 300 mg/kg IP
  Mean distance travelled over 30 min (locomotor activity): 7588.5
[8]; DCS 300 mg/kg IP, listed as D-cycloserine
  Mean distance travelled over 30 min (locomotor activity): significantly increased
[8]; DCS 1000 mg/kg IP
  Mean distance travelled over 30 min (locomotor activity): 9049.8
[8]; DCS 1000 mg/kg IP, listed as D-cycloserine
  Mean distance travelled over 30 min (locomotor activity): significantly increased
[1]
  Immobility time in the rodent forced swim test, Mean: 42.08 s
[1]; 30 mg/kg (FIG. 1, PO)
  Effect on immobility in the forced swim test vs control: no significant effect
[1]; doses of 100 mg/kg or above (FIG. 1, PO)
  Effect on immobility in the forced swim test vs control: statistically significant (p<0.001) reduction
[9]; D-cycloserine 30 mg/kg IP
  Mean plasma levels over 30-60 min: below 25 microgram/mL
[9]; D-cycloserine 30 mg/kg IP, listed as D-cycloserine
  Mean plasma levels over 30-60 min: 24.89 microgram/mL
[9]; D-cycloserine 100 mg/kg IP
  Mean plasma levels over 30-60 min: 74.92 microgram/mL
[9]; D-cycloserine 500 mg/kg IP
  Mean plasma levels over 30-60 min: 375.44 microgram/mL
[9]; D-cycloserine 1000 mg/kg IP
  Mean plasma levels over 30-60 min: 510.73 microgram/mL
[9]; male, C57BL/6J, mouse, in vivo, IP, read-out: Maximum tolerated dose
  MTD: 500 to 1000 mg/kg
[9]; suggested from maximum tolerated dose
  Maximum tolerated blood level: approximately 500 ug/mL
[10]
  Effect on locomotor stimulation by a low dose of MK-801: potentiated
